The values that follow come from US9193731B2, “Antimicrobial compounds and methods of making and using the same” (Melinta Therapeutics, Inc., priority 2009, dated 2015).

The subject of this test is Escherichia coli strain ATCC25922. Kind of test: standard microdilution assay to determine minimum inhibitory concentrations (MICs). The format is cell-based. Particulars: for E. coli ATCC25922 MIC: Escherichia coli strain ATCC25922, microdilution; for MIC: Escherichia coli, ATCC25922, Escherichia coli strain ATCC25922, microdilution, read-out: E. coli ATCC25922 MIC. The method in brief: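 Broth microdilution MIC against E. coli ATCC25922, following CLSI protocols, typically in a 100 microliter final volume. Results reported as +/− relative to a 16 micrograms/ml cutoff.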
On the technique in general: Dilution methods test growth across graded concentrations, often in twofold steps.

For the compound `N=C(N)NCCCNCc1ccc(-n2cc3cc(-c4cc(C(=O)NCC5CCCO5)cc(N5CCNCC5)c4)[nH]c3nc2=O)cc1` (stereo not shown) [Compound 1029], the “E. coli ATCC25922 MIC” value is recorded as “+ (a “+” indicates that the compound has an MIC value of 16 micrograms/ml or less)”.
As usually defined, the MIC is the lowest concentration found to suppress growth. As for `NCCCNCc1ccc(-c2cn3cc(-c4ccc(C(=O)NCCO)cc4)[nH]c3nc2=O)cc1` [Compound 827], the MIC is greater than 16 µg/mL.
Consider `N=C(N)NCCCNCc1ccc(-n2cc3cc(-c4cc(CCCCN)cc([S+]([O-])C(F)(F)F)c4)[nH]c3nc2=O)cc1` (stereo not shown) [Compound 2054a], for which the “E. coli ATCC25922 MIC” value was “+ (a “+” indicates that the compound has an MIC value of 16 micrograms/ml or less)”.
Take `NCc1ccc(-n2cc3cc(-c4cccc(CCN5CCNCC5)c4)[nH]c3nc2=O)cc1` [Compound 1200]: the MIC was greater than 16 µg/mL.
Still for that read-out and setting: with `NCCCN(CCCN)Cc1ccc(-n2cc3cc(Cn4nnc5ccccc54)[nH]c3nc2=O)cc1` [Compound 182] the figure was greater than 16 µg/mL; with `CNCCCOc1cccc(-c2cc3cn(-c4ccc(CNCCCNC(=N)N)cc4)c(=O)nc3[nH]2)c1` [Compound 1221], less than 16 µg/mL.
On to `N=C(N)CCCOc1cccc(-c2cc3cn(-c4ccc(CNCCCNC(=N)N)cc4)c(=O)nc3[nH]2)c1` [Compound 1217], for which the “E. coli ATCC25922 MIC” value is listed as “+ (a “+” indicates that the compound has an MIC value of 16 micrograms/ml or less)”.
On to `O=C(NC1CCNCC1)c1ccc(-c2cc3cn(-c4ccc(CNCCCCl)cc4)c(=O)nc3[nH]2)c(F)c1` [Compound 253], for which the MIC is greater than 16 µg/mL.
With `CC(C)(C)c1ccc(-c2cc3cn(-c4ccc(CNCCCN)cc4)c(=O)nc3[nH]2)cc1` [Compound 634], the MIC was less than 16 µg/mL.
`N=C(N)NCCCCOc1ccc(-c2cn3cc(-c4ccc(C(=O)NC5CCN(C(=N)N)CC5)cc4)[nH]c3nc2=O)cc1` [Compound 848]: the “E. coli ATCC25922 MIC” value is “+ (a “+” indicates that the compound has an MIC value of 16 micrograms/ml or less)”.
For the compound `NCCCNCc1ccc(-n2cc3cc(-c4cccc(N5CCNCC5)c4)[nH]c3nc2=O)cc1` [Compound 775], the MIC is less than 16 µg/mL.
Consider `N=C(N)NCCCNCc1ccc(-c2cn3cc(-c4ccc(C(=O)N5CCC(N)CC5)cc4)[nH]c3nc2=O)cc1` [Compound 808], for which the “E. coli ATCC25922 MIC” value is recorded as “+ (a “+” indicates that the compound has an MIC value of 16 micrograms/ml or less)”.
For `N=C(N)NCCCNC(=O)c1ccc(-n2cc3cc(-c4ccc(S(=O)(=O)NC5CNC5)cc4)[nH]c3nc2=O)cc1` [Compound 1268], the “E. coli ATCC25922 MIC” value is listed as “+ (a “+” indicates that the compound has an MIC value of 16 micrograms/ml or less)”.
Turning to `N=C(N)NCCCNCc1ccc(-n2cc3cc(-c4cccc(OCC(F)CN)c4)[nH]c3nc2=O)cc1` (stereo not shown) [Compound 1390], the “E. coli ATCC25922 MIC” value is reported as “+ (a “+” indicates that the compound has an MIC value of 16 micrograms/ml or less)”.
With `NCc1ccc(-n2cc3cc(-c4ccc(S(=O)(=O)N(CCCN5Cc6ccccc6C5)C5CCNCC5)cc4)[nH]c3nc2=O)cc1` [Compound 1065], the MIC is greater than 16 µg/mL.
As for `N=C(N)NCCCNCc1ccc(-n2cc3cc(-c4ccc(C(=O)NC5CCNCC5)cc4)[nH]c3nc2=O)cc1` [Compound 234], the MIC is less than 16 µg/mL.
For `CNCc1ccc(-n2cc3cc(-c4ccc(S(=O)(=O)N(CC5COc6ccccc6O5)C5CCNCC5)cc4)[nH]c3nc2=O)cc1` (stereo not shown) [Compound 968], the “E. coli ATCC25922 MIC” value is given as “− (a “−” indicates that the compound has an MIC value greater than 16 micrograms/ml)”.
Regarding `N=C(N)NCCCNCc1ccc(-c2cn3cc(-c4ccc(C(=O)N5CC[C@H](F)C5)cc4)[nH]c3nc2=O)cc1` [Compound 673], the MIC is greater than 16 µg/mL.
On to `N=C(N)NCCCNCc1ccc(-n2cc3cc(-c4cc(C(=O)NCCc5cccc(F)c5)cc(N5CCNCC5)c4)[nH]c3nc2=O)cc1` [Compound 1068], for which the “E. coli ATCC25922 MIC” value is given as “+ (a “+” indicates that the compound has an MIC value of 16 micrograms/ml or less)”.
With `NCCc1c[nH]c2cc(-n3cc4cc(CCS(=O)(=O)C5CCNCC5)[nH]c4nc3=O)ccc12` [Compound 1278], the MIC was greater than 16 µg/mL.
With `O=c1nc2[nH]c(-c3ccc(S(=O)(=O)NC4CCNCC4)cc3)cc2cn1-c1cccc(OCC2CCNCC2)c1` [Compound 1141], the MIC was greater than 16 µg/mL.
Consider `N=C(N)NCCCNCc1ccc(-c2cn3cc(-c4ccc(C(=O)NC5CCNC5)cc4)[nH]c3nc2=O)cc1` (stereo not shown) [Compound 705], for which the MIC is less than 16 µg/mL.
As for `CCNCCc1cc(OCC(F)CN)cc(-c2cc3cn(-c4ccc(CNCCCNC(=N)N)cc4)c(=O)nc3[nH]2)c1` (stereo not shown) [Compound 2033a], the “E. coli ATCC25922 MIC” value was “+ (a “+” indicates that the compound has an MIC value of 16 micrograms/ml or less)”.
Consider `N=C(N)N1CCC(NCCCS(=O)(=O)c2ccc(-c3cc4cn(-c5ccc(CNCCCN)cc5)c(=O)nc4[nH]3)cc2)C1` (stereo not shown) [Compound 1292], for which the “E. coli ATCC25922 MIC” value is on record as “+ (a “+” indicates that the compound has an MIC value of 16 micrograms/ml or less)”.
Take `N=C(N)NCCCNCc1ccc(-n2cc3cc(-c4cccc(N5CCNCC5)c4)[nH]c3nc2=O)cc1` [Compound 655]: the MIC is less than 16 µg/mL.
Consider `NCCCNC(=O)c1ccc(-n2cc3cc(-c4ccc(S(=O)(=O)NC5CCNCC5)cc4)[nH]c3nc2=O)cc1` [Compound 892], for which the “E. coli ATCC25922 MIC” value is “+ (a “+” indicates that the compound has an MIC value of 16 micrograms/ml or less)”.
For `O=c1nc2[nH]c(-c3ccc(S(=O)(=O)NC4CCNCC4)c(Cl)c3)cc2cn1-c1ccc(CNCCCF)cc1` [Compound 261], the MIC was greater than 16 µg/mL.
In the case of `N=C(N)NCCCNCC(Cn1cc2cc(-c3ccc(S(=O)(=O)NC4CCNCC4)cc3)[nH]c2nc1=O)OCc1ccc(F)cc1` (stereo not shown) [Compound 1097], the “E. coli ATCC25922 MIC” value is recorded as “− (a “−” indicates that the compound has an MIC value greater than 16 micrograms/ml)”.
The same measure, in the same setting: with `N=C(N)NCCCNCc1ccc(-n2cc3cc(-c4cc(CO)cc(CCCCN)c4)[nH]c3nc2=O)cc1` [Compound 2065a] the entry was “+ (a “+” indicates that the compound has an MIC value of 16 micrograms/ml or less)”.
As to `NCCCNCc1ccc(-n2cc3cc(-c4ccc(S(=O)(=O)N(CC5CC5)C5CCNCC5)cc4)[nH]c3nc2=O)cc1` [Compound 711], the MIC is less than 16 µg/mL.
For `N=C(N)NCCCNCc1ccc(-n2cc3cc(COc4ccccc4)[nH]c3nc2=O)cc1` [Compound 630], the minimal inhibitory concentration (MIC) is greater than 16 µg/mL.
As for `N=C(N)NCCCNCc1ccc(-n2cc3cc(-c4ccc(S(=O)(=O)CCCNC5CCNCC5)cc4)[nH]c3nc2=O)cc1` [Compound 1285], the “E. coli ATCC25922 MIC” value is listed as “+ (a “+” indicates that the compound has an MIC value of 16 micrograms/ml or less)”.
As for `N=C(N)NCCCNCc1ccc(-n2cc3cc(-c4cc(CCCCN)cc(C(F)F)c4)[nH]c3nc2=O)cc1` [Compound 2087a], the “E. coli ATCC25922 MIC” value was “+ (a “+” indicates that the compound has an MIC value of 16 micrograms/ml or less)”.
In the case of `N=C(N)NCCCNCc1ccc(-n2cc3cc(-c4ccc(S(=O)(=O)N(Cc5cc(Cl)cc(C(F)(F)F)c5)C5CCNCC5)cc4)[nH]c3nc2=O)cc1` [Compound 922], the “E. coli ATCC25922 MIC” value is reported as “+ (a “+” indicates that the compound has an MIC value of 16 micrograms/ml or less)”.
`N=C(N)NCCCNCc1ccc(-n2cc3cc(-c4cc(CNCC(F)(F)F)cc(N5CCNCC5)c4)[nH]c3nc2=O)cc1` [Compound 1040]: the “E. coli ATCC25922 MIC” value is listed as “+ (a “+” indicates that the compound has an MIC value of 16 micrograms/ml or less)”.
`CCCCN1CC=C(c2cn3cc(-c4ccc(F)cc4)[nH]c3nc2=O)CC1` [Compound 565]: the MIC is greater than 16 µg/mL.
For the compound `CN(CCO)C(=O)c1ccc(-c2cn3cc(-c4ccc(CNCCCN)cc4)c(=O)nc3[nH]2)cc1` [Compound 771], the MIC is less than 16 µg/mL.
Regarding `NCC(Cn1cc2cc(-c3ccc(S(=O)(=O)NC4CCNCC4)cc3)[nH]c2nc1=O)OCc1ccc(F)cc1` (stereo not shown) [Compound 1085], the MIC was greater than 16 µg/mL.
Same read-out and setting: with `N=C(N)CCCN1CCCC(c2cc3cn(-c4ccc(CNCCCNC(=N)N)cc4)c(=O)nc3[nH]2)C1` (stereo not shown) [Compound 2020a] the figure was less than 16 µg/mL; with `NCc1ccc(-n2cc3cc(-c4ccccc4OCCO)[nH]c3nc2=O)cc1` [Compound 1088], greater than 16 µg/mL.
Take `N=C(N)NCCCNCc1ccc(-n2cc3cc(-c4cccc(CN5CCNCC5)c4)[nH]c3nc2=O)cc1` [Compound 1233]: the MIC was less than 16 µg/mL.
Consider `N=C(N)NCCCNCc1ccc(-n2cc3cc(-c4cc(CCCCN)ccc4F)[nH]c3nc2=O)cc1` [Compound 2091a], for which the “E. coli ATCC25922 MIC” value is given as “+ (a “+” indicates that the compound has an MIC value of 16 micrograms/ml or less)”.
As to `CC(C)(N)CCOc1cccc(-c2cc3cn(-c4ccc(CNCCCNC(=N)N)cc4)c(=O)nc3[nH]2)c1` [Compound 1410], the “E. coli ATCC25922 MIC” value is on record as “+ (a “+” indicates that the compound has an MIC value of 16 micrograms/ml or less)”.
Regarding `NCCCNCc1ccc(-c2cn3nc(NC(=O)c4ccc(F)cc4)[nH]c3nc2=O)cc1` [Compound 709], the MIC was greater than 16 µg/mL.
Still for that read-out and setting: with `NCCCN1CC=C(c2cn3cc[nH]c3nc2=O)CC1` [Compound 571] the figure was greater than 16 µg/mL.
For the compound `N=C(N)NCCCN1CC=C(n2cc3cc(-c4ccc(S(=O)(=O)N(CCCN5CCCCC5)C5CCNCC5)cc4)[nH]c3nc2=O)CC1` [Compound 960], the “E. coli ATCC25922 MIC” value was “+ (a “+” indicates that the compound has an MIC value of 16 micrograms/ml or less)”.
In the case of `CO[C@H](CN)COc1cccc(-c2cc3cn(-c4ccc(CN)cc4)c(=O)nc3[nH]2)c1` [Compound 1428], the MIC was greater than 16 µg/mL.
For `N=C(N)NCCCOCc1ccc(-c2cn3cc(-c4ccc(C(=O)N5CCNCC5)cc4)[nH]c3nc2=O)cc1` [Compound 932], the MIC was greater than 16 µg/mL.
The same measure, in the same setting: with `N=C(N)NCCCNCc1ccc(-n2cc3cc(CCS(=O)(=O)C4CCNCC4)[nH]c3nc2=O)cc1` [Compound 1240] the figure was less than 16 µg/mL.
On to `NCCCNCc1ccc(-n2cc3cc(CCNC4CCNCC4)[nH]c3nc2=O)cc1` [Compound 687], for which the MIC is less than 16 µg/mL.
Consider `CNCc1ccc(-n2cc3cc(-c4ccc(S(=O)(=O)N(CCCn5ccc(C(F)(F)F)n5)C5CCNCC5)cc4)[nH]c3nc2=O)cc1` [Compound 1021], for which the MIC is greater than 16 µg/mL.
For `N=C(N)NCCCNCc1ccc(-n2cc3cc(-c4cc(CNCCN)cc(OC(F)(F)F)c4)[nH]c3nc2=O)cc1` [Compound 2070a], the “E. coli ATCC25922 MIC” value is “+ (a “+” indicates that the compound has an MIC value of 16 micrograms/ml or less)”.
